Laboratory results taken from patent US8143245B2 (Pierre Fabre Medicament, priority 2006, dated 2012).
Marks after values point to notes of the source that are not given here. Values belong to the compound of their own block, whether it stands above or below them.

Columns and labels:
[1] = Anticholinergic activity in vivo by intravenous administration
[2] = biological target: T1, human M3 muscarinic receptor (Homo sapiens, UniProt P20309); assay: V0162 receptor binding in vitro, CHO cells transfected with human M3, 4-DAMP; details: M3 (h)
T1 construct: expressed in transfected cells; host or cells: CHO cells, stably transfected
T1 sequence (P20309 whole entry): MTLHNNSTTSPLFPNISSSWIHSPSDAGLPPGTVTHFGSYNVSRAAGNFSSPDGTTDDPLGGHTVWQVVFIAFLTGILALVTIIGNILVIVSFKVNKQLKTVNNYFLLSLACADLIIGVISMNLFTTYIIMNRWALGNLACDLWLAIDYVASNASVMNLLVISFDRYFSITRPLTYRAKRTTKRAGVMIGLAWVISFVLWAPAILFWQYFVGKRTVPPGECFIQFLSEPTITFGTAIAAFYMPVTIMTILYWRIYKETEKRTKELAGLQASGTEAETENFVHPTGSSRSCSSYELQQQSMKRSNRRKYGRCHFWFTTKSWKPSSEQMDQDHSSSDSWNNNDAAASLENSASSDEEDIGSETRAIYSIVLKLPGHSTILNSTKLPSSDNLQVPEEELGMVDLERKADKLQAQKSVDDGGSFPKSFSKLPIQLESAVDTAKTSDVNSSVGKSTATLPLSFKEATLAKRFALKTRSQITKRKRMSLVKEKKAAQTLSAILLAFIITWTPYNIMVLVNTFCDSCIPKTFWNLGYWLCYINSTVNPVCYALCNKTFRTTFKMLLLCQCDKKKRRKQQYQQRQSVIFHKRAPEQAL
Text: (§1) The purpose of this study is to determine an affinity constant for the compound with respect to the three classes of human muscarinic receptors in vitro. The model chosen is the CHO cell stably transfected with cDNAs coding for each of the three human muscarinic receptors. […] Binding with respect to the receptors is defined as follows: the difference between overall binding and non-specific binding determined in the presence of excess cold ligand. The results are expressed as a percentage of the optimal binding obtained with the model ligand (100%). […] The inhibition constants (Ki) were calculated by means of the Cheng Prusoff equation (Ki=IC50/(1+L/KD)); where L is the radioligand concentration and KD the affinity of the radioligand for the receptor.

[3] = biological target: T2, human M1 muscarinic receptor (Homo sapiens, UniProt P11229); assay: V0162 receptor binding in vitro, CHO cells transfected with human M1, tritiated pirenzepine; details: M1(h)
T2 sequence (P11229 1-460): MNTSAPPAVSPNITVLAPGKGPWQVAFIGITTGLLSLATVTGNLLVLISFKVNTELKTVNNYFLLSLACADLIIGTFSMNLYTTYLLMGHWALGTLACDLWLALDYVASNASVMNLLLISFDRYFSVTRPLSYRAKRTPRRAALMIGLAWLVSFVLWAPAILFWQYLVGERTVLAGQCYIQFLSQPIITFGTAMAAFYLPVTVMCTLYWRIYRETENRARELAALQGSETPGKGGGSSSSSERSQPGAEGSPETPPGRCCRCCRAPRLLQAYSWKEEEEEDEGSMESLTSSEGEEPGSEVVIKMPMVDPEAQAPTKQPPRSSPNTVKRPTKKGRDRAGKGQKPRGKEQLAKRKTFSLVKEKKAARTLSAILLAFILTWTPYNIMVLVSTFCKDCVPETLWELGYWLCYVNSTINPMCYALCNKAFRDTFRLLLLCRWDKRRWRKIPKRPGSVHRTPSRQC
Text: as §1

[4] = tested on: pilocarpine-induced sialorrhea in the rat; assay: Pilocarpine-induced sialorrhea, inhibition of salivary secretion after p.o. administration; type: in vivo
Description: For the purpose of evaluating anticholinergic activity in the validated model of pilocarpine-induced sialorrhea in the rat, groups of animals were fasted and the next day the products were administered orally 90 minutes before intra-peritoneal injection of pilocarpine (0.5 mg.kg^-1). The compounds tested were administered in doses of 2.5, 5 and 10 mg.kg^-1. […] The animals were anaesthetized and then the salivary secretion was collected for 60 minutes, every ten minutes. The samples were then dried and weighed.

salivation = details: preclinical animal studies; cited from earlier work
[5] = tested on: M3 muscarinic receptors versus M2 muscarinic receptors; details: cited from earlier work
[6] = tested on: increase in intravesical pressure induced by bethanechol; assay: Intravesical pressure (cystomanometry) after bethanechol; type: in vivo; details: compared to oxybutyrine
Description: The objective of this study was to measure intravesical pressure and salivation, in the animal, for the purpose of testing the uroselectivity of the anti-muscarinics, when they are administered orally and vaginally. In order to evaluate intravesical pressure, the bladders of the animals were catheterized in order to make possible recording (cystomanometry: continuous recording of the vesical pressure). The products to be tested were administered either per os at a dose of 5 mg.Kg^-1 or by local application of a suspension of […] at 0.4% in a vehicle with a base of cyclodextrin and arginine. The jugular vein was also cannulated in order to administer a muscarinic agonist: bethanechol (200 μg/kg, iv). At each administration of bethanechol, the variation of vesical pressure (ΔPV, mmHg) and the quantity of saliva (mg) were evaluated and quantified. The positive control was made up of a group of animals treated with oxybutyrine (Ditropan®; 10, 100 and 1000 μg/kg, iv).

[7] = Transmucosal passage: repeated nasal administration of V0162 suspension, circulating level and tolerance; type: in vivo, rabbit; details: for Level of V0162: rabbit plasma, nasal 0.4% suspension twice per day
Description: 48 rabbits were treated nasally daily for 28 days with a suspension titrated at 0.4% mass/volume. […] Each group was made up of males and females equally. Nasal administration of the suspension was carried out twice per day for 28 days. Plasma samples were taken on D1, D2, D7, D28, D35. The samples were analyzed by an LC/MS/MS method validated by assay of V0162.

[8] = tested on: explants taken from the guinea pig (contractions induced by acetylcholine); assay: Anticholinergic effect ex vivo, contractions induced by acetylcholine in explants; details: for Response to Acetylcholine Max. Response (%): test curve, mean ± sem, n = 6
Description: The purpose of these experiments was to confirm the anticholinergic activity of […] on a living organ. In order to do so, explants taken from the guinea pig were kept alive. The morphology of the preparations was homogeneous from batch to batch. Each explant was placed in a survival chamber and immersed in a physiological solution of composition (mM): NaCl (118); KCl (4.7); […] CaCl2 (2.5); […] NaHCO3 (25); glucose (11), at a temperature of 37° C. and with a pH of 7.4. Before the test, the following agents were dispersed in the survival buffer in order to block non-specific responses to acetylcholine: […] (10^-6 M) to block β2-adrenergic responses; cimetidine (10^-5 M) to block type 2 histaminergic responses; methysergide (10^-6 M) to block serotoninergic responses and indomethacine (3×10^-6 M) to prevent the appearance of muscle tonus due to a release of prostaglandins by the preparation itself. At the time of acquisition, the tissues were connected to […] in order to continuously record the variations in tension. After 60 minutes of calibration of the preparations, the tissues were exposed to variable concentrations of […]. The contractions induced by acetylcholine as dose responses were carried out in order to determine the response of the preparation to the stimulation in the absence of the putative inhibitor.

[9] = p.o. 5 mg·kg^−1, comparison of racemic mixture and enantiomers (Table 4)
[10] = p.o. 2.5 mg·kg^−1, 90 min before pilocarpine
[11] = p.o. 10 mg·kg^−1, 90 min before pilocarpine

nH (Hill coefficient) [2]: 1.0
nH (Hill coefficient) [3]: 1.1
Compound: c1ccc2c(c1)Sc1ccccc1N2C[C@@H]1CN2CCC1CC2 [10-[(3S)-1-azabicyclo[2.2.2]oct-3-ylmethyl]-10H-phenothiazine, reference compound]
Anticholinergic activity in vivo [1]: does not demonstrate clear activity
Inhibition (%) [4, 9]: −4%

Compound: NC(=O)C(c1ccccc1)(c1ccccc1)[C@@H]1CCN(CCc2ccc3c(c2)CCO3)C1 [darifenacine]
Effect on salivation (salivation): reduce salivation
Affinity for M3 muscarinic receptors higher than for M2 muscarinic receptors [5]: 7 times
Selectivity between M3 and M2 receptor [5]: more selective with respect to the M3 receptor than with respect to the M2

Compound: Cc1ccc(O)c([C@H](CCN(C(C)C)C(C)C)c2ccccc2)c1 [tolterodine]
Effect on salivation (salivation): reduces salivation less
Selectivity between M3 and M2 receptor [5]: more specific for the M2 receptor than for the M3 receptor

Compound: c1ccc2c(c1)Sc1ccccc1N2C[C@H]1CN2CCC1CC2 [V0162, 10-[(3R)-1-azabicyclo[2.2.2]oct-3-ylmethyl]-10H-phenothiazine]
Anticholinergic activity in vivo [1]: anticholinergic by intravenous administration
Increase in intravesical pressure induced by bethanecol ([6]; local application of 0.4% suspension, bethanechol 200 μg/kg iv): significantly reduces the increase in intravesical pressure
Increase in intravesical pressure induced by bethanecol ([6]; per os 5 mg.Kg^−1, bethanechol 200 μg/kg iv): significantly reduces the increase in intravesical pressure
Level of V0162 ([7]; Day 1/4 hours after administration): 0.88 ng/mL
Level of V0162 ([7]; Day 1/before administration): BLQ
Level of V0162 ([7]; Day 2/before administration): 0.22 ng/mL
Level of V0162 ([7]; Day 7/before administration): 0.41 ng/mL
Level of V0162 ([7]; Day 28/4 hours after administration): 1.35 ng/mL
Level of V0162 ([7]; Day 28/24 hours after administration): 0.23 ng/mL
Level of V0162 ([7]; Day 35/before administration): BLQ
Toxic effects (histological plane, respiratory rhythm, heart rate, behaviour) ([7]; rabbit, in vivo): do not lead to toxic effects
Effects on the nasal mucosa ([7]; rabbit, nasal 0.4% suspension twice per day for 28 days): does not induce deleterious effects on the nasal mucosa
Circulating level ([7]; rabbit, nasal administration of a suspension): ~4 nM
Inhibition (%) [4, 10]: 29%
Secretion [4, 10]: 735.6 mg
Secretion ([4]; p.o. 5 mg·kg^−1, 90 min before pilocarpine): 338.9 mg
Inhibition (%) ([4]; p.o. 5 mg·kg^−1, 90 min before pilocarpine (Table 3)): 67* %
Inhibition (%) [4, 9]: 77* %
Inhibition (%) [4, 11]: 95* %
Secretion [4, 11]: 45.1 mg
Response to Acetylcholine Max. Response (%) ([8]; V0162 30 nM): 98 ± 1%
Response to Acetylcholine Max. Response (%) ([8]; V0162 100 nM): 98 ± 1%
Response to Acetylcholine Max. Response (%) ([8]; V0162 300 nM): 98 ± 1%
Mode of action towards acetylcholine ([8]; ex vivo model): behaves like an antagonistic competitor of acetylcholine

Compound: CN1[C@@H]2CC[C@H]1C[C@@H](OC(=O)C(CO)c1ccccc1)C2 (some centres unmarked) [Atropine, reference compound]
Inhibition (%) ([4]; 1 mg·kg^−1, positive control): 98* %

Compound: CCN(CC)CC#CCOC(=O)C(O)(c1ccccc1)C1CCCCC1 (centres unmarked) [oxybutynine]
Effect on salivation (salivation): reduce salivation

nH (Hill coefficient) [2]: 1.2
nH (Hill coefficient) [3]: 0.8
Compound: c1ccc2c(c1)Sc1ccccc1N2CC1CN2CCC1CC2 (racemic) [10-[(3R,3S)-1-azabicyclo[2.2.2]oct-3-ylmethyl]-10H-phenothiazine, reference compound]
Inhibition (%) [4, 9]: 73* %
